Reference: patent publication US20230257385A1, “SALT AND SOLID FORMS OF TABERNANTHALOG” (priority 2021, published 2023)

Tests used:
Format in all cases: physicochemical
[1] = Binary solvent evaporation crystallisation of sorbate salt (Example 10, Experiment 6); conditions: sorbate salt Form A evaporated from MeOH (10 vol) plus solvent B (5 vol), one solvent B per sample
Source text: Each vial was capped with aluminium foil, pierced, and allowed to stand undisturbed until the evaporation is completed.

[2] = Suspension equilibration (competitive; ageing cycle; drying of wet pellets), relative stability of forms
Protocol: FIG. 94 depicts the XRPD overlay of, form top to bottom, a mixture of Tabernanthalog·0.5 Fumarate and Tabernanthalog·Fumarate equilibrated in acetonitrile at 20° C., a mixture of Tabernanthalog·0.5 Fumarate and Tabernanthalog·Fumarate equilibrated in acetonitrile at 40° C. and Tabernanthalog fumarate Pattern 19.
FIG. 283 depicts the timepoints of the suspension equilibration in tBME at 20° C. XRPD diffractogram overlay of, from top to bottom, Sample B-A2 (Form B, Pattern #2a), 8-A4 (Form A, Pattern #6a), 16-A1 (t=24 h, 16-A2 (t=48 h), 16-A3 (t=108 h), 16-A4 (t=192 h) 16-A8 (t=4 weeks).
FIG. 284 depicts the timepoints of the suspension equilibration in tBME at 40° C. XRPD diffractogram overlay of, from top to bottom, Sample B-A2 (Form B, Pattern #2a), 8-A4 (Form A, Pattern #6a), 16-B1 (t=24 h, 16-B2 (t=48 h), 16-B3 (t=108 h), 16-B4 (t=192 h) 16-B8 (t=4 weeks).

[3] = Evaporation screen of the monofumarate salt (Experiment Reference 14); conditions: input Sample Reference 1, Solvent A DMSO, Solvent B: 14-A EtOH; for XRPD crystallinity (wet pellet): 14-B nBuOH (disordered), 14-C water (high background); for XRPD crystallinity (oven dried): 14-B nBuOH, 14-C water
Protocol: Crystallization of the API was examined by changing the composition of the crystallization solvent by evaporation of a volatile diluent. This technique is useful for generating kinetic forms and solvates. Separate portions of the tabernanthalog monofumarate salt (Pattern #1, Sample Reference 1, ca 50 mg, 1.0 wt.) were charged to separate vessels. DMSO (100 μl, 2.0 vol, refer to Table 132) was charged to the relevant vessels and subsequent charges of the appropriate co-solvent (900 μl, 18.0 vol) were made to accomplish dissolution. The vials were covered with an aluminum foil cap and pierced with a single hole, then left to stand at 20° C. After 6 days, gentle nitrogen flux was applied to dryness. The products were analyzed by XRPD and companion analyses, for evidence of alternative crystalline forms.

[4] = Competitive suspension equilibration monofumarate Form A and Form B (Experiment Reference 16); conditions: 16-A at 20 °C, 16-B at 40 °C
Protocol: Competitive suspension equilibration (Form A and Form B) (Experiment Reference 16) a. Experimental Procedure Equimolar quantities of Form A (Pattern #6a, 25.4 mg, 1 wt, 8-A4; (Experiment Reference 8-Sample Reference A4)) and Form B (Pattern #2a, 25.0 mg, 1 wt, Sample B-A2) were suspended in tBME (250 μl, 5.0 vol). The first experiment was agitated at 20° C., (16-A) (Experiment Reference 16-Sample Reference A), while the other was agitated at 40° C. (16-B) (Experiment Reference 16-Sample Reference B). The suspension was monitored by XRPD analysis.
Competitive suspension equilibration of Form A (8-A4) (Experiment Reference 8-Sample Reference A4) versus Form B (Sample B-A2) was performed at 20° C. […] Summary of competitive suspension equilibration between Form A and Form B (16-A (Experiment Reference 16-Sample Reference A) and 16-B (Experiment Reference 16-Sample Reference B)) is provided in Table 153A.

[5] = Vapour diffusion of the monofumarate salt (Experiment Reference 13); conditions: input Sample Reference 1, Solvent A DMSO, Solvent B: 13-B TBME, 13-C water, patterns v. disordered
Protocol: The tabernanthalog monofumarate salt (Sample Reference 1, Pattern #1, 3×75 mg, 1 wt) was weighed out in to 3 separate snap-top vials and DMSO (375 ul, 5 vol) was charged to each vial. Gentle warning was applied to ensure full dissolution and the vials (open) were placed inside amber jars that contained 6 ml of DCM (13-A) (Experiment Reference 13-Sample Reference A), tBME (13-B) (Experiment Reference 13-Sample Reference B) and water (13-C) (Experiment Reference 13-Sample Reference C).
The 3 jars that contained the vials were left standing at 20° C., to allow slow movement of the diffusant solvent from the outer jar into the solvent inside the smaller, open wide-necked vessel and promote crystallization by altering the solvent composition.

[6] = Stability of Tabernanthalog·Sorbate·HemiHFIPA at 75% RH, 20° C. and 40° C.; conditions: 5 days; for HFIPA content after storage / powder pattern after storage: 75% RH, 20° C. and 40° C.; for HFIPA content after storage: 19F NMR; for powder pattern after storage: XRPD; for Outcome: input Experiment 3-Sample A2
Protocol: Stability of the salt (Table 302) at elevated relative humidity was examined at 20 and 40° C., to determine if the HFIPA solvent can be replaced by water to generate the isomorphic hydrate.
Experimental reference: Experiment 3-Sample B1, Experiment 3-Sample C1 Tabernanthalog·Sorbate·HemiHFIPA (Experiment 3-Sample A2, 28.2 mg, 1 wt) was charged into a wide necked solid sample vial, the uncapped vial was placed inside a larger amber jar containing an aqueous NaCl slurry. The amber jar was sealed and left to stand for 5 days. The specimen analysed by XRPD, ^19F NMR, TGA and DSC after 5 days.

[7] = Re-proportionation examination hemifumarate / monofumarate (Example 5, Experiment References 5 and 10)
Protocol: (5-B4; Experiment Reference 5-Sample Reference B4) and 40° C. (5-B5; Experiment Reference 5-Sample Reference B5). The output was analyzed by XRPD (FIG. 94).
Purified water (250 ml, 5 vol) was subsequently added, and the suspension was stirred at 50° C. for ca. 24 h.
Purified water (250 ml, 5 vol) was subsequently added, and the suspension was stirred at 20° C. for ca. 24 h.

[8] = Stability panel of salts, open vial / double-bagged vial, t=5 d and 10 d; conditions: input Form A
Source text: FIG. 797 depicts the overlay of, from top to bottom, XRPD of Experiment 1-Sample A2 (Form A), Experiment 10-Sample A1 (5 days, open vial Pattern #2), Experiment 10-Sample A2 (10 days, open vial, Pattern #2), Experiment 10-Sample B1 (5 days, double-bagged vial, Form A) and Experiment 10-Sample B2 (10 days, double-bagged vial, Pattern #2).

[9] = listed as Tabernanthalog·Sorbate·hemiHFIPA

Compound: CC=CC=CC(=O)O.COc1ccc2c3c([nH]c2c1)CCN(C)CC3 [Experiment 6-Sample A]
- XRPD (dried under nitrogen) [1]: Pattern #1

Compound: CC=CC=CC(=O)O.COc1ccc2c3c([nH]c2c1)CCN(C)CC3 [Experiment 6-Sample C]
- XRPD (dried under nitrogen) [1]: Form A

Compound: C/C=C/C=C/C(=O)O.COc1ccc2c3c([nH]c2c1)CCN(C)CC3 [Experiment 6-Sample D]
- XRPD (dried under nitrogen) [1]: Form A

Compound: C/C=C/C=C/C(=O)O.COc1ccc2c3c([nH]c2c1)CCN(C)CC3 [Experiment 6-Sample E]
- XRPD (dried under nitrogen) [1]: Form A

Compound: COc1ccc2c3c([nH]c2c1)CCN(C)CC3 [Form B]
- form change under competitive suspension equilibration conditions ([2]; in the presence of Form A): slowly evolves into Form A

Compound: COc1ccc2c3c([nH]c2c1)CCN(C)CC3.O=C(O)/C=C/C(=O)O [Pattern 14-A]
- XRPD crystallinity (wet pellet) [3]: (Pattern #23)

Compound: COc1ccc2c3c([nH]c2c1)CCN(C)CC3.O=C(O)/C=C/C(=O)O [Pattern 14-B]
- XRPD crystallinity (wet pellet) [3]: (Pattern #23)

Compound: COc1ccc2c3c([nH]c2c1)CCN(C)CC3.O=C(O)/C=C/C(=O)O [Pattern 14-C]
- XRPD crystallinity (wet pellet) [3]: (Pattern #6a)

Compound: COc1ccc2c3c([nH]c2c1)CCN(C)CC3.O=C(O)/C=C/C(=O)O [Pattern 16-A]
- XRPD (4 weeks, -A8) ([4]; competitive suspension equilibration of Form A and Form B in TBME (5.0 vol), t = 4 weeks): Form A > Form B
- XRPD (48 h, -A2) ([4]; competitive suspension equilibration of Form A and Form B in TBME (5.0 vol), t = 48 h): Form A > Form B
- XRPD (108 h, -A3) ([4]; competitive suspension equilibration of Form A and Form B in TBME (5.0 vol), t = 108 h): Form A > Form B
- XRPD (192 h, -A4) ([4]; competitive suspension equilibration of Form A and Form B in TBME (5.0 vol), t = 192 h): Form A >> Form B

Compound: COc1ccc2c3c([nH]c2c1)CCN(C)CC3.O=C(O)/C=C/C(=O)O [Pattern 16-B]
- XRPD (24 h, -A1) ([4]; competitive suspension equilibration of Form A (8-A4) and Form B (Sample B-A2) in TBME (5.0 vol), t = 24 h): Form A > Form B

Compound: COc1ccc2c3c([nH]c2c1)CCN(C)CC3.O=C(O)/C=C/C(=O)O [Sample 13-B]
- XRPD crystallinity (oven dried) [5]: Pattern #24
- XRPD crystallinity (wet pellet) [5]: Pattern #24

Compound: COc1ccc2c3c([nH]c2c1)CCN(C)CC3.O=C(O)/C=C/C(=O)O [Sample 13-C]
- XRPD crystallinity (oven dried) [5]: Pattern #23
- XRPD crystallinity (wet pellet) [5]: Pattern #23

Compound: COc1ccc2c3c([nH]c2c1)CCN(C)CC3.O=C(O)/C=C/C(=O)O [Sample 14-A]
- XRPD crystallinity (oven dried) [3]: Pattern 23

Compound: COc1ccc2c3c([nH]c2c1)CCN(C)CC3.O=C(O)/C=C/C(=O)O [Sample 14-B]
- XRPD crystallinity (oven dried) [3]: Pattern 23

Compound: COc1ccc2c3c([nH]c2c1)CCN(C)CC3.O=C(O)/C=C/C(=O)O [Sample 14-C]
- XRPD crystallinity (oven dried) [3]: Pattern 6a

Compound: C/C=C/C=C/C(=O)O.C/C=C/C=C/C(=O)O.COc1ccc2c3c([nH]c2c1)CCN(C)CC3.COc1ccc2c3c([nH]c2c1)CCN(C)CC3.OC(C(F)(F)F)C(F)(F)F [Tabernanthalog·Sorbate·HemiHFIPA]
- HFIPA content after storage [6]: small decrease in HFIPA content
- HFIPA content after storage [6, 9]: partial loss of HFIPA
- powder pattern after storage [6]: No change in powder pattern observed
- powder pattern after storage [6, 9]: No change in the powder pattern was observed

Compound: CC=CC=CC(=O)O.CC=CC=CC(=O)O.COc1ccc2c3c([nH]c2c1)CCN(C)CC3.COc1ccc2c3c([nH]c2c1)CCN(C)CC3.OC(C(F)(F)F)C(F)(F)F [Tabernanthalog•Sorbate•hemiHFIPA]
- Outcome ([6]; 75% RH 20° C.): HemiHFIPA
- Outcome ([6]; 75% RH 40° C.): HemiHFIPA

Compound: COc1ccc2c3c([nH]c2c1)CCN(C)CC3 [tabernanthalog hemifumarate]
- re-proportionation of the hemi-salt into the monofumarate salt ([7]; Expt. #1: equilibrated in acetonitrile at 20° C., 20 h time point): did not re-proportionate
- outcome of competitive equilibration of hemifumarate and monofumarate ([7]; Expt. #2: acetonitrile, 48 h at 20° C. and 18 h at 40° C., XRPD): re-proportionation into the unary-fumarate appeared to be favored over the hemi-fumarate
- change of salt stoichiometry during an ageing cycle ([2]; ageing cycle): re-proportionated into the fumarate salt

Compound: C/C=C/C=C/C(=O)O.COc1ccc2c3c([nH]c2c1)CCN(C)CC3 [tabernanthalog sorbate salt Form A]
- form by XRPD after stability storage ([8]; 5 days, double-bagged vial): Form A
- form by XRPD after stability storage ([8]; 5 days, open vial): Pattern #2
- form by XRPD after stability storage ([8]; 10 days, double-bagged vial): Pattern #2
